Assay results: paper PMC6429507, “Triterpene-Based Carboxamides Act as Good Inhibitors of Butyrylcholinesterase” (Molecules, 2019)
Like-named read-outs stand apart in the source and are kept apart here.

Columns and labels:
[1] = Solubility under the conditions of the assay; conditions: Ellman's assay conditions
Procedure: (§1) In this study, carboxamides with different triterpenoic backbones (ursolic, oleanolic, maslinic, betulinic, and platanic acids), and various amine residues (Scheme 1), were investigated.
(§2) 3.1 Preparation of the solutions
(§3) Preparation of 50 mM Tris-HCl buffer solutions: Tris(hydroxymethyl)-aminomethane (606 mg) was dissolved in bidestilled water (100 mL) and adjusted with HCl to a pH of 8.0 ± 0.1. Buffers were freshly prepared and stored in the refrigerator. AChE solution 2.005 U/mL: the enzyme (271 U/mg, 0.037 mg) was dissolved in freshly prepared buffer pH 8.0 (5 mL) containing NaN3 (0.98 mg). BChE solution 2.040 U/mL: the enzyme (7.54 U/mg, 1.353 mg) was dissolved in freshly prepared buffer pH 8.0 (5 mL) containing NaN3 (0.98 mg). DTNB solution 3 mM: DTNB (23.8 mg) was dissolved in freshly prepared buffer pH 8.0 (20 mL) containing NaCl (116.8 mg) and MgCl2 (38.0 mg). ATChI solution 15 mM:
(§4) ATChI (43.4 mg) was dissolved in bidestilled water (10 mL). All solutions were stored in Eppendorf caps in the refrigerator or in the freezer, if necessary. The pure compounds were […]
(§5) dissolved in bidistilled water. The final concentrations for the enzymatic assay were obtained by diluting the stock solution with bidistilled water.
(§6) A mixture of the DTNB solution (125 µL), enzyme solution (25 µL) and compounds solutions (25 µL, 3 different concentrations and once blank water) was prepared and incubated at 30 °C for 20 min. The substrate (25 µL, 4 different concentrations) was added to start the enzymatic reaction. The absorbance data (l = 415 nm) was recorded under a controlled temperature of 30 °C for 30 min at 1 min intervals. The substrate concentrations in the test were as follows: […]
(§7) determined as the quotient of the slopes (compound divided by blank) of the linear ranges.
(§8) The used substrate concentration was 0.625 mM. The absorbance data was recorded under a controlled temperature of 30 °C for 10 min.

[2] = target: T1, butyrylcholinesterase (BChE, equine serum) (Equus caballus, UniProt P81908); assay: Ellman's assay, butyrylcholinesterase inhibition; type: biochemical; conditions: for Grade of inhibition in% BChE: mean ± SE; for selectivity F (percent inhibition for AChE divided by percent inhibition for BChE): towards BChE
T1 construct: Butyrylcholinesterase (from equine serum) was purchased from Fluka; purchased Fluka; host or cells: equine serum
Excerpt: as §1
(§9) A TECAN SpectraFluorPlus working in the kinetic mode and measuring the absorbance at λ = 415 nm was used for the enzymatic studies. Acetylcholinesterase (from Electrophorus electricus), 5,5′-dithiobis-(2-nitrobenzoic acid) (DTNB) and acetylthiocholine iodide were purchased from Sigma. Butyrylcholinesterase (from equine serum) was purchased from Fluka. Preparation of the solutions, assay procedure, as well as molecular modeling conditions can be found in the Supplementary Materials.
as §2, §3, §4, §5, §6, §7, §8

[3] = target: acetylcholinesterase (AChE, electric eel) (Electrophorus electricus, UniProt O42275); conditions: for Grade of inhibition in% AChE / Ki' (uncompetitive inhibition) / Ki: mean ± SE; for Type of Inhibition / Ki' (uncompetitive inhibition) / Ki: AChE, electric eel; for Ki: read-out: Ki (competitive inhibition)
Excerpt: as §1, §9, §2, §3, §4, §5, §6, §7, §8

[4] = BChE, equine serum, Ellman's assay
[5] = BChE, equine serum, Ellman's assay, read-out: Ki (competitive inhibition)
[6] = experimental Ki restated in docking Table 3, unit inferred, read-out: Ki

acetylcholinesterase (AChE, electric eel), sequence (O42275 24-633): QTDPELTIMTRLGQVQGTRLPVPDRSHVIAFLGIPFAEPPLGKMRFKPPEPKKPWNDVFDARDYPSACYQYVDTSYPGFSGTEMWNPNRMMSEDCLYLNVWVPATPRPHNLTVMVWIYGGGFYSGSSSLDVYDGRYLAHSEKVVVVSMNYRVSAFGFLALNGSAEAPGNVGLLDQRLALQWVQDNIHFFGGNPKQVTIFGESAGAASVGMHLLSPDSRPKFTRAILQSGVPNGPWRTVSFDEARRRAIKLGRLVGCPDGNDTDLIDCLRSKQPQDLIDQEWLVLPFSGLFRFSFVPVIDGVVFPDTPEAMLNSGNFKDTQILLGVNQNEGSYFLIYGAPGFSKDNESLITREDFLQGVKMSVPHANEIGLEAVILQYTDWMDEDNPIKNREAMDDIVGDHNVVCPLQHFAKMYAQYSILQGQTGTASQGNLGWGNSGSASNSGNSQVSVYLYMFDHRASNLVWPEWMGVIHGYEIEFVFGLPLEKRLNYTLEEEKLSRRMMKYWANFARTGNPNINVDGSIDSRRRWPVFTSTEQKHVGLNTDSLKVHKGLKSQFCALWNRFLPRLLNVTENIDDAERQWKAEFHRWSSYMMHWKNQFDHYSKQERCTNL
T1 sequence (P81908 whole entry): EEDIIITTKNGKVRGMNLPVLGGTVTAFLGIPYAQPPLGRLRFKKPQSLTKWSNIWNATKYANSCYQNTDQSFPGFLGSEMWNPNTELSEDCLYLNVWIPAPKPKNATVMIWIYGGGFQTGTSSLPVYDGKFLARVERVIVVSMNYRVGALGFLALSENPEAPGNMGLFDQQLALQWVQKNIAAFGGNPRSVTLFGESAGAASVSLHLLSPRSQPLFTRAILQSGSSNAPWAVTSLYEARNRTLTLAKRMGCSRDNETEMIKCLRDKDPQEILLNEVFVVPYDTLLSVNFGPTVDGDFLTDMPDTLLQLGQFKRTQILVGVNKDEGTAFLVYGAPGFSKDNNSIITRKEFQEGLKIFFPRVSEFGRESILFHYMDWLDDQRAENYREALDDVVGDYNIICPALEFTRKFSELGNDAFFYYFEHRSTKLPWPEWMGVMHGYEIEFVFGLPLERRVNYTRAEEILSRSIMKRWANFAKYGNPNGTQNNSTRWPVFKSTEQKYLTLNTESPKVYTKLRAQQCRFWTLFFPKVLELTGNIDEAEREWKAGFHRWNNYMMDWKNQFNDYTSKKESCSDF

SMILES	Grade of inhibition in% BChE ([2]; c = 30 µM)	Grade of inhibition in% AChE ([3]; c = 30 µM)	Type of Inhibition ([2]; BChE, equine serum)	Ki′ (uncompetitive inhibition) [2, 4]	Ki [2, 5]	Grade of inhibition in% BChE ([2]; c = 10 µM)	Grade of inhibition in% AChE ([3]; c = 10 µM)	further results
CC(=O)OC1CC2(C)C(CCC3(C)C2CC=C2C4CC(C)(C)CCC4(C(=O)NCCN(C)C)CCC23C)C(C)(C)C1OC(C)=O (stereo not drawn) [Compound 23, (2α,3β)-N-[2-(Dimethylamino)ethyl]-2,3-diacetyloxy-olean-12-en-28-amide]								solubility under the conditions of the assay [1]: n.sol.
CC(=O)OC1CCC2(C)C(CCC3(C)C2CC=C2C4CC(C)(C)CCC4(C(=O)NCCN(C)C)CCC23C)C1(C)C (stereo not drawn) [Compound 22, (3β)-N-[2-(Dimethylamino)-ethyl]-3-acetyloxy-olean-12-en-28-amide]								solubility under the conditions of the assay [1]: n.sol.
CC(=O)O[C@H]1CC[C@@]2(C)C(CC[C@]3(C)C2CC=C2C4[C@@H](C)[C@H](C)CC[C@]4(C(=O)NCCN4CCCCC4)CC[C@]23C)C1(C)C (some centres unmarked) [Compound 41]								solubility under the conditions of the assay [1]: n.sol.
CC(=O)OC1CC2(C)C(CCC3(C)C2CC=C2C4CC(C)(C)CCC4(C(=O)NCCN4CCCCC4)CCC23C)C(C)(C)C1OC(C)=O (stereo not drawn) [Compound 43, (2α,3β)-N-(2-Piperidin-1-ylethyl)-2,3-diacetyloxy-olean-12-en-28-amide]	53.47 ± 3.47%	23.30 ± 0.10%						
CC(=O)OC1CCC2(C)C(CCC3(C)C2CC=C2C4CC(C)(C)CCC4(C(=O)NCCN4CCCCC4)CCC23C)C1(C)C (stereo not drawn) [Compound 42, (3β)-N-(2-Piperidin-1-ylethyl)-3-acetyloxy-olean-12-en-28-amide]	53.09 ± 0.14%	45.57 ± 0.25%						
CC(=O)O[C@H]1CC[C@]2(C)[C@H]3CC=C4[C@@H]5CC(C)(C)CC[C@]5(C(=O)NCCN5CCCC5)CC[C@@]4(C)[C@]3(C)CC[C@H]2C1(C)C [Compound 32, (3β)-N-(2-Pyrrolidin-1-ylethyl)-3-acetyloxy-olean-12-en-28-amide]			mixed-type	29.88 ± 1.13 µM	2.02 ± 0.56 µM	65.73 ± 0.14%	7.29 ± 0.50%	selectivity F (percent inhibition for AChE divided by percent inhibition for BChE) [2]: 0.11
CC(=O)OC1CC2(C)C(CCC3(C)C2CC=C2C4CC(C)(C)CCC4(C(=O)NCCN)CCC23C)C(C)(C)C1OC(C)=O (stereo not drawn) [Compound 13, (2α,3β)-N-(2-Aminoethyl)-2,3-diacetyloxy-olean-12-en-28-amide]						40.83 ± 0.21%	31.91 ± 0.32%	
CC(=O)[C@@H]1CC[C@]2(C(=O)NCCN)CC[C@]3(C)[C@H](CC[C@@H]4[C@@]5(C)CC[C@H](O)C(C)(C)[C@@H]5CC[C@]43C)[C@@H]12 [Compound 20]			mixed-type	> 110 µM	8.37 ± 0.67 µM	12.98 ± 0.35%	37.09 ± 0.97%	Type of Inhibition [3]: mixed-type; Ki' (uncompetitive inhibition) [3]: 9.71 ± 0.03 µM; Ki [3]: 7.18 ± 0.02 µM
CC1(C)CC[C@]2(C(=O)NCCN3CCCCC3)CC[C@]3(C)C(=CC[C@@H]4[C@@]5(C)CC[C@H](O)C(C)(C)[C@@H]5CC[C@]43C)[C@@H]2C1 [Compound 47, (3β)-N-(2-Piperidin-1-ylethyl)-3-hydroxy-olean-12-en-28-amide]	74.89 ± 0.04%	38.65 ± 0.29%	mixed-type	10.42 ± 1.36 µM	1.57 ± 0.01 µM			
CC(=O)O[C@H]1CC[C@]2(C)[C@H]3CC[C@@H]4[C@H]5[C@H](C(C)=O)CC[C@]5(C(=O)NCCN5CCCC5)CC[C@@]4(C)[C@]3(C)CC[C@H]2C1(C)C [Compound 35, (3β)-N-(2-pyrrolidin-1-ylethyl)-3-acetyloxy-20-oxo-30-norlupan-28-amide]	94.60 ± 0.02%	19.97 ± 0.13%	mixed-type	2.38 ± 0.48 µM	0.07 ± 0.01 µM			Ki [2, 6]: 0.07 µM; selectivity F (percent inhibition for AChE divided by percent inhibition for BChE) [2]: ≈ 0.21
CC(=O)O[C@H]1CC[C@@]2(C)C(CC[C@]3(C)C2CC=C2C4[C@@H](C)[C@H](C)CC[C@]4(C(=O)NCCN(C)C)CC[C@]23C)C1(C)C (some centres unmarked) [Compound 21]			mixed-type	143.36 ± 0.02 µM	6.48 ± 0.1 µM	36.50 ± 0.30%	10.78 ± 0.12%	
CN(C)CCNC(=O)[C@]12CCC(C)(C)C[C@H]1C1=CC[C@@H]3[C@@]4(C)C[C@@H](O)[C@H](O)C(C)(C)[C@@H]4CC[C@@]3(C)[C@]1(C)CC2 [Compound 28, (2α,3β)-N-[2-(Dimethylamino)-ethyl]-2,3-dihydroxy-olean-12-en-28-amide]	79.01 ± 0.29%	13.47 ± 0.55%	mixed-type	27.26 ± 3.47 µM	2.2 ± 0.25 µM			
CC(=O)OC1CC2(C)C(CCC3(C)C2CC=C2C4CC(C)(C)CCC4(C(=O)NCCN4CCCC4)CCC23C)C(C)(C)C1OC(C)=O (stereo not drawn) [Compound 33, (2α,3β)-N-(2-Pyrrolidin-1-ylethyl)-2,3-diacetyloxy-olean-12-en-28-amide]	33.01 ± 2.91%	23.47 ± 4.59%						
CC(=O)O[C@H]1CC[C@@]2(C)C(CC[C@]3(C)C2CC=C2C4[C@@H](C)[C@H](C)CC[C@]4(C(=O)NCCN4CCCC4)CC[C@]23C)C1(C)C (some centres unmarked) [Compound 31]			mixed-type	6.00 ± 0.47 µM	4.42 ± 0.34 µM	50.49 ± 2.23%	14.54 ± 0.36%	Ki [2, 6]: 4.42 µM
CC(=O)[C@@H]1CC[C@]2(C(=O)NCCN3CCCC3)CC[C@]3(C)[C@H](CC[C@@H]4[C@@]5(C)CC[C@H](O)C(C)(C)[C@@H]5CC[C@]43C)[C@@H]12 [Compound 40]	89.15 ± 0.44%	33.06 ± 0.45%	mixed-type	> 10 µM	0.45 ± 0.01 µM			Type of Inhibition [3]: mixed-type; Ki' (uncompetitive inhibition) [3]: 23.63 ± 0.39 µM; Ki [3]: 27.9 ± 2.99 µM
CC(=O)O[C@H]1CC[C@]2(C)[C@H]3CC[C@@H]4[C@H]5[C@H](C(C)=O)CC[C@]5(C(=O)NCCN(C)C)CC[C@@]4(C)[C@]3(C)CC[C@H]2C1(C)C [Compound 25]			mixed-type			88.49 ± 0.58%	no inhibition	
C=C(C)C1CC[C@]2(C(=O)NCCN3CCCCC3)CC[C@]3(C)C(CCC4[C@@]5(C)CC[C@H](O)C(C)(C)C5CC[C@]43C)C12 (stereo partly drawn) [Compound 49, (3β)-N-(2-piperidin-1-ylethyl)-3-hydroxy-lup-20(29)-en-28-amide]			mixed-type	> 8 µM	2.52 ± 0.29 µM	66.02 ± 0.70%	82.72 ± 0.09%	Type of Inhibition [3]: mixed-type; Ki' (uncompetitive inhibition) [3]: 1.42 ± 0.08 µM; Ki [3]: 1 ± 0.09 µM
C=C(C)C1CC[C@]2(C(=O)NCCN)CC[C@]3(C)C(CCC4[C@@]5(C)CC[C@H](OC(C)=O)C(C)(C)C5CC[C@]43C)C12 (some centres unmarked) [Compound 14]						42.70 ± 1.33%	56.17 ± 0.64%	
